This note sets out measurements from patent US20220195487A1, “Method for Measuring Inhibition of Bacteria by Antibacterial Drug, and Bacterial Counting Device and Method Thereof” (BEIJING XINJI JINNUO MEDICAL EQUIPMENT CO.,LTD., priority 2019, published 2022).

Converted amounts (≈) assume the structure as drawn.

Holding throughout (type): cell-based
Assay [1] concerns Escherichia coli ATCC 25922. Nature of the assay: broth dilution drug susceptibility testing method (CLSI). The note with it: ATCC25922, read-out: minimum inhibitory concentration. The method, then: (§1) In addition, the bacteria in this example were also subjected to three other methods of drug susceptibility testing, namely, measuring the inhibition of Escherichia coli ATCC 25922 in this example by ampicillin according to the operating manual of the VITEK microbial identification susceptibility system from Merieux, France, with a minimum inhibitory concentration of 4 μg/mL (micrograms per milliliter); measuring the inhibition of Escherichia coli ATCC 25922 in this example by ampicillin according to the Etest method, as detailed in the operating manual of the Etest kit from Thermo Fisher, USA, with a minimum inhibitory concentration of 2 μg/mL; and measuring the inhibition of Escherichia coli ATCC 25922 in this example by ampicillin according to broth dilution drug susceptibility testing method as specified in the broth dilution susceptibility standards by the American Clinical and Laboratory Standards Institute, with a minimum inhibitory concentration of 4 μg/mL. It can be seen that their results are all consistent and sensitive.

Assay [2] has as its system Escherichia coli ATCC 25922. Nature of the assay: Etest method. Particulars: ATCC25922, read-out: minimum inhibitory concentration. The method, then: as §1
For assay [3], the system named is Escherichia coli ATCC 25922. Put plainly: VITEK microbial identification susceptibility system. The note with it: ATCC25922, read-out: minimum inhibitory concentration. How it is done:
as §1

The subject of assay [4] is Escherichia coli ATCC 25922. Put plainly: rapid susceptibility test by resistance counting method (Coulter principle). How it is done: A method for measuring inhibition of Escherichia coli ATCC 25922 by ampicillin (by the resistance counting method).
The standard strain ATCC 25922 Escherichia coli was transferred for use later and incubated at 37° C. for 18 hours.
Ten of the drug susceptibility testing tubes (or cups) contained the required antibiotics of concentrations via doubling dilution (refer to American CLSI standards for concentrations for different drugs); the eleventh tube without antibiotics is used as a positive control (PC); the twelfth tube without bacterial suspension is used as a negative control (NC).
Prepare the bacterial strain and triturate on the wall of a vial with Mueller Hinton broth (MH for antibiotics susceptibility testing) to mix evenly, close the cap and measure the turbidity with a nephelometer (BD PhoenixSpec Nephelometer), the turbidity being 0.5 McFarland units, and set aside to be used later.
Inoculate the bacteria to be tested at an inoculum concentration specified in the CLSI (American Clinical and Laboratory Standards Institute) method for broth dilution drug susceptibility testing, and incubate in an incubator at 37° C.
Preparation of bacterial suspension: pick a spare colony to prepare bacterial suspension, the concentration of the bacterial suspension being 0.5 McFarland units. Add the colony suspension to (MH) broths containing different concentrations of various antibiotics and the content of bacteria in each tube after inoculation is 1×10∧4 cfu/mL to 5×10∧7 cfu/mL, optimally 5×10∧6 cfu/mL (colony forming units/mL), i.e. optimally 5×10∧6 colony forming units per mL.
Incubate in an incubator at 37° C., perform bacterial counting at 0 min, 10 min, 30 min, 60 min, 90 min and 120 min respectively by the resistance counting method (OMEC (Zhuhai) RC-3000 resistance (Coulter) particle counter). Measure twice, take the average value and record the data.
There were 12 tubes for testing, the eleventh tube being the positive control (PC), the twelfth tube being the negative control (NC) and the other 10 tubes being the test tubes. At each detection time point, measurements were carried out for all 12 tubes.

Assay [5] deals with Acinetobacter baumannii. Nature of the assay: rapid drug susceptibility testing of living cells (live bacteria counting, 2 h). Particulars: for Living cell counts: 2 h. How it is done:
(§2) 1.2.1 Preparation of bacterial strains: in accordance with the requirements of the CLSI standards, pick each fresh strains within 24 h with a turbidity of 0.5 McFarland units in the column of strain name in Table 7.
(§3) 1.2.2 Inoculation: take 100 μL of each bacterial suspension with a turbidity of 0.5 McFarland units and dispense to a 48-well plate with pre-configured gradient antibiotics, 500 μL dispensed in each well.
(§4) 1.2.3 Incubation and detection: incubate for 2 h at 37° C., and perform live bacteria counting. Record the 24 h routine susceptibility results for comparative analysis.

Assay [6] relates to Acinetobacter baumannii. Nature of the assay: 2 h susceptibility by resistance bacterial counter. The note with it: Example 3, resistance counting, 2 h at 37° C., 60% of the positive count value as threshold. The method, then:
(§5) 2.2.1 Preparation of bacterial strains: In accordance with the requirements of the CLSI standards, pick each fresh strains within 24 h with a turbidity of 0.5 McFarland units in the column of strain name in Table 5;
(§6) 2.2.2 Inoculation: Take 100 μL of each bacterial suspension with a turbidity of 0.5 McFarland units and dispense to a 48-well plate with pre-configured gradient antibiotics, 500 μL dispensed in each well;
(§7) 2.2.3 Incubation and detection: Incubate for 2 h at 37° C., and measure with a resistance bacterial counter. Adjust the instrument to its best sensitivity and then count bacteria. Record the 24 h routine susceptibility results for comparative analysis.

For assay [7], the system named is Acinetobacter baumannii. Nature of the assay: 24 h routine (conventional) drug susceptibility testing by visual observation.
Assay [8] concerns Enterococcus faecalis (ATCC29212). Put plainly: rapid drug susceptibility testing of living cells (live bacteria counting, 2 h). Particulars: for Living cell counts: 2 h. The method, then:
as §2, §3, §4

Assay [9] has the same test system. Put plainly: 24 h routine (conventional) drug susceptibility testing by visual observation.
Assay [10] has the same test system. Nature of the assay: 2 h susceptibility by resistance bacterial counter. The note with it: Example 3, resistance counting, 2 h at 37° C., 60% of the positive count value as threshold. How it is done:
as §5, §6, §7

In assay [11] the test system is Klebsiella pneumoniae. Nature of the assay: rapid drug susceptibility testing of living cells (live bacteria counting, 2 h). The note with it: for Living cell counts: 2 h. How it is done: as §2, §3, §4
For assay [12], the system named is Klebsiella pneumoniae. Nature of the assay: 2 h susceptibility by resistance bacterial counter. The note with it: Example 3, resistance counting, 2 h at 37° C., 60% of the positive count value as threshold. The method, then:
as §5, §6, §7

Assay [13] has as its system Klebsiella pneumoniae. Nature of the assay: 24 h routine (conventional) drug susceptibility testing by visual observation.
Where [14] appears, read: Example 4, live bacteria counting, 2 h at 37° C.
[15] abbreviates: Example 3, 24 h routine susceptibility.
The mark [16] stands for this setting: Example 4, 24 h routine susceptibility.

`CC1(C)S[C@@H]2[C@H](NC(=O)[C@H](N)c3ccccc3)C(=O)N2[C@H]1C(=O)O` [ampicillin]: the MIC in assay [1] came to 4 µg/mL (≈ 11.4 µM); in assay [2], 2 µg/mL (≈ 5.72 µM); in assay [3] it was 4 µg/mL (≈ 11.4 µM); in assay [4] (ATCC25922, resistance method, Escherichia coli ATCC 25922, read-out: minimum inhibitory concentration (MIC)), 4 µg/mL (≈ 11.4 µM). For the same compound, the bacterial counts in assay [4] (0 min, 0.5 μg/mL) came out at 210 cells/μL; in assay [4] (0 min, 1 μg/mL) it was 230 cells/μL; in assay [4] (0 min, 2 μg/mL) it was 208 cells/μL; in [4] (0 min, 4 μg/mL) it was 206 cells/μL; in assay [4] (0 min, 8 μg/mL), 204 cells/μL; in [4] (0 min, 16 μg/mL) it was 208 cells/μL. In addition, the bacterial counts in [4] (0 min, 32 μg/mL) came to 210 cells/μL; in [4] (0 min, 64 μg/mL), 220 cells/μL; in assay [4] (0 min, 128 μg/mL), 212 cells/μL; in assay [4] (0 min, 256 μg/mL), 207 cells/μL; in [4] (60 min, 0.5 μg/mL), 807 cells/μL; in assay [4] (60 min, 1 μg/mL) it was 789 cells/μL. Moreover, the bacterial counts in assay [4] (60 min, 2 μg/mL) was 811 cells/μL; in [4] (60 min, 4 μg/mL), 304 cells/μL; in [4] (60 min, 8 μg/mL), 250 cells/μL; in assay [4] (60 min, 16 μg/mL) it was 264 cells/μL; in assay [4] (60 min, 32 μg/mL), 290 cells/μL; in assay [4] (60 min, 64 μg/mL), 278 cells/μL. For the same compound, the bacterial counts in assay [4] (60 min, 128 μg/mL) amounted to 214 cells/μL; in assay [4] (60 min, 256 μg/mL) it was 350 cells/μL; in assay [4] (90 min, 0.5 μg/mL), 1540 cells/μL; in assay [4] (90 min, 1 μg/mL), 1469 cells/μL; in assay [4] (90 min, 2 μg/mL), 1511 cells/μL; in assay [4] (90 min, 4 μg/mL), 432 cells/μL. For the same compound, the bacterial counts is 502 cells/μL in assay [4] (90 min, 8 μg/mL); 500 cells/μL in assay [4] (90 min, 16 μg/mL); 491 cells/μL in [4] (90 min, 32 μg/mL); 489 cells/μL in assay [4] (90 min, 64 μg/mL); 367 cells/μL in assay [4] (90 min, 128 μg/mL); 460 cells/μL in [4] (90 min, 256 μg/mL). In addition, the bacterial counts in assay [4] (120 min, 0.5 μg/mL) was determined as 2534 cells/μL; in assay [4] (120 min, 1 μg/mL), 2456 cells/μL; in [4] (120 min, 2 μg/mL), 2463 cells/μL; in [4] (120 min, 4 μg/mL) it was 590 cells/μL; in assay [4] (120 min, 8 μg/mL) it was 524 cells/μL; in assay [4] (120 min, 16 μg/mL) it was 560 cells/μL. Also, the bacterial counts is on record as 578 cells/μL in assay [4] (120 min, 32 μg/mL); 641 cells/μL in assay [4] (120 min, 64 μg/mL); 498 cells/μL in assay [4] (120 min, 128 μg/mL); 512 cells/μL in assay [4] (120 min, 256 μg/mL).

On to `C[C@@H](O)[C@H]1C(=O)N2C(C(=O)O)=C(S[C@@H]3CN[C@H](C(=O)N(C)C)C3)[C@H](C)[C@H]12` [Meropenem], for which the Living cell counts worked out at 7959 cells/μL with Acinetobacter baumannii [5] (0.03 μg/mL); 6495 cells/μL in the assay with Acinetobacter baumannii [5] (0.06 μg/mL); 1574 cells/μL with Acinetobacter baumannii [5] (0.12 μg/mL); 1570 cells/μL in the assay with Acinetobacter baumannii [5] (0.25 μg/mL); 1514 cells/μL with Acinetobacter baumannii [5] (0.5 μg/mL); 1490 cells/μL in the assay with Acinetobacter baumannii [5] (1 μg/mL). For the same compound, the Living cell counts turned out to be 1479 cells/μL in the assay with Acinetobacter baumannii [5] (2 μg/mL), 1561 cells/μL in the assay with Acinetobacter baumannii [5] (4 μg/mL), 1003 cells/μL in the assay on Acinetobacter baumannii [5] (8 μg/mL) and 979 cells/μL in the assay on Acinetobacter baumannii [5] (16 μg/mL). The same compound gave an MIC, rapid drug susceptibility testing of living cells in the assay with Acinetobacter baumannii [5] (setting [14]) of 0.12 µg/mL. Besides, in the assay on Acinetobacter baumannii [6], the “2 hMIC” value is reported as 0.12. Further, the “24 hMIC” value in the assay on Acinetobacter baumannii [7] (setting [15]) is 0.12. The MIC, conventional drug susceptibility testing against Acinetobacter baumannii [7] (setting [16]) was 0.12 µg/mL (≈ 0.313 µM).

Regarding Penicillin, the Living cell counts in assay [8] (0.03 μg/mL) was 13789 cells/μL; in [8] (0.06 μg/mL), 13679 cells/μL; in assay [8] (0.12 μg/mL), 12958 cells/μL; in [8] (0.25 μg/mL), 12088 cells/μL; in assay [8] (0.5 μg/mL), 11105 cells/μL; in assay [8] (1 μg/mL), 3085 cells/μL. Also, the Living cell counts is on record as 1076 cells/μL in assay [8] (2 μg/mL), 798 cells/μL in assay [8] (4 μg/mL), 683 cells/μL in assay [8] (8 μg/mL) and 659 cells/μL in [8] (16 μg/mL). Besides, the MIC, rapid drug susceptibility testing of living cells in [8] (setting [14]) was 1 µg/mL. In addition, the “24 hMIC” value in [9] (setting [15]) amounted to 2. The compound further displayed an MIC, conventional drug susceptibility testing in assay [9] (setting [16]) of 2 µg/mL. For the same compound, the “2 hMIC” value in [10] amounted to 1.

With Gentamicin, the Living cell counts is given as 11879 cells/μL with Klebsiella pneumoniae [11] (0.03 μg/mL); 11426 cells/μL in the assay with Klebsiella pneumoniae [11] (0.06 μg/mL); 10167 cells/μL in the assay with Klebsiella pneumoniae [11] (0.12 μg/mL); 10278 cells/μL in the assay with Klebsiella pneumoniae [11] (0.25 μg/mL); 10971 cells/μL in the assay on Klebsiella pneumoniae [11] (0.5 μg/mL); 10654 cells/μL in the assay with Klebsiella pneumoniae [11] (1 μg/mL). Moreover, the Living cell counts in the assay with Klebsiella pneumoniae [11] (2 μg/mL) worked out at 10549 cells/μL; with Klebsiella pneumoniae [11] (4 μg/mL), 10876 cells/μL; in the assay with Klebsiella pneumoniae [11] (8 μg/mL) it was 1876 cells/μL; with Klebsiella pneumoniae [11] (16 μg/mL), 880 cells/μL. The same compound had an MIC, rapid drug susceptibility testing of living cells in the assay on Klebsiella pneumoniae [11] (setting [14]) of 8 µg/mL. Also, in the assay on Klebsiella pneumoniae [12], the “2 hMIC” value is given as 4. Also, the “24 hMIC” value in the assay on Klebsiella pneumoniae [13] (setting [15]) was determined as 8. For the same compound, the MIC, conventional drug susceptibility testing against Klebsiella pneumoniae [13] (setting [16]) was found to be 8 µg/mL.
